Values of other authors as cited in PubChem BioAssay AID1259409 (Chemical Carcinogenesis Research Information System (CCRIS), 2018).

System: rodent chemically induced tumor inhibition, incidence and multiplicity
Assay: CCRIS tumor inhibitor studies

| SMILES | tumour outcome (control, treated, inhibition, significance) (Carcinogen: 2,2'-DIHYDROXY-DI-N-PROPYLNITROSAMINE, 53609-64-6, N-ETHYL-N-HYDROXYETHYLNITROSAMINE, 13147-25-6, 3,2'-DIMETHYL-1,4-, Carcinogen: 2,2'-DIHYDROXY-DI-N-PROPYLNITROSAMINE, 53609-64-6, N-ETHYL-N-HYDROXYETHYLNITROSAMINE, 13147-25-6, 3,2'-DIMETHYL-1,4-, Dose [Inhibitor]: 0, 1% IN DIET FOR 4 WK BEGINNING 1 D PRIOR TO FIRST CARCINOGEN DOSE (STUDY DURATION: 36 WK), Route [Inhibitor]: ORAL, Species: RAT, Strain/Sex: F344/MALE, Target Tissue: Type of Lesion: KIDNEY: ADENOMA, Dose [Carcinogen]: 1000 MG/KG BW DHPN TWICE, 1500 MG/KG EHEN TWICE, 75 MG/KG BW DMAB 3 TIMES, SEQUENTIALLY OVER 3 WK, Promoter: NONE USED) | tumour outcome (control, treated, inhibition, significance) (Carcinogen: 2,2'-DIHYDROXY-DI-N-PROPYLNITROSAMINE, 53609-64-6, N-ETHYL-N-HYDROXYETHYLNITROSAMINE, 13147-25-6, 3,2'-DIMETHYL-1,4-, Carcinogen: 2,2'-DIHYDROXY-DI-N-PROPYLNITROSAMINE, 53609-64-6, N-ETHYL-N-HYDROXYETHYLNITROSAMINE, 13147-25-6, 3,2'-DIMETHYL-1,4-, Dose [Inhibitor]: 0, 1% IN DIET FOR 4 WK BEGINNING 1 D PRIOR TO FIRST CARCINOGEN DOSE (STUDY DURATION: 36 WK), Route [Inhibitor]: ORAL, Species: RAT, Strain/Sex: F344/MALE, Target Tissue: Type of Lesion: LUNG: ADENOMA, Dose [Carcinogen]: 1000 MG/KG BW DHPN TWICE, 1500 MG/KG EHEN TWICE, 75 MG/KG BW DMAB 3 TIMES, SEQUENTIALLY OVER 3 WK, Promoter: NONE USED) | tumour outcome (control, treated, inhibition, significance) (Carcinogen: 2-AMINO-1-METHYL-6-PHENYLIMIDAZO[4,5-B]PYRIDINE, 105650-23-5, Dose [Inhibitor]: 0, 1% IN DIET FOR 54 WK (STUDY DURATION: 54 WK), Route [Inhibitor]: ORAL, Species: RAT, Strain/Sex: F344/FEMALE, Target Tissue: Type of Lesion: COLON: ADENOMA, Dose [Carcinogen]: 0.02% IN DIET FOR 54 WK, Promoter: NONE USED) | tumour outcome (control, treated, inhibition, significance) (Carcinogen: 2-AMINO-1-METHYL-6-PHENYLIMIDAZO[4,5-B]PYRIDINE, 105650-23-5, Dose [Inhibitor]: 0, 1% IN DIET FOR 54 WK (STUDY DURATION: 54 WK), Route [Inhibitor]: ORAL, Species: RAT, Strain/Sex: F344/FEMALE, Target Tissue: Type of Lesion: MAMMARY GLAND: ADENOCARCINOMA, Dose [Carcinogen]: 0.02% IN DIET FOR 54 WK, Promoter: NONE USED) | tumour outcome (control, treated, inhibition, significance) (Carcinogen: 2-AMINO-1-METHYL-6-PHENYLIMIDAZO[4,5-B]PYRIDINE, 105650-23-5, Dose [Inhibitor]: 0, 1% IN DIET FOR 54 WK (STUDY DURATION: 54 WK), Route [Inhibitor]: ORAL, Species: RAT, Strain/Sex: F344/FEMALE, Target Tissue: Type of Lesion: MAMMARY GLAND: FIBROADENOMA, Dose [Carcinogen]: 0.02% IN DIET FOR 54 WK, Promoter: NONE USED) | tumour outcome (control, treated, inhibition, significance) (Carcinogen: 7,12-DIMETHYLBENZ[A]ANTHRACENE [57-97-6], Dose [Inhibitor]: 0.5% IN 0.2 ML DMSO/ACETONE (15:85) 1 D PRIOR TO CARCINOGEN DOSE (STUDY DURATION: 31 WK), Route [Inhibitor]: DERMAL, Species: MOUSE, Strain/Sex: ICR/FEMALE, Target Tissue: Type of Lesion: SKIN: TUMOR, Dose [Carcinogen]: 0.2 UMOL ONCE (STUDY DURATION: 31 WK), Promoter: 12-O-TETRADECANOYLPHORBOL-13-ACETATE [16561-29-8]) | tumour outcome (control, treated, inhibition, significance) (Carcinogen: 7,12-DIMETHYLBENZ[A]ANTHRACENE [57-97-6], Dose [Inhibitor]: 0.5% IN 0.2 ML DMSO/ACETONE (15:85) 1 D PRIOR TO CARCINOGEN DOSE AND 10 MIN PRIOR TO EACH PROMOTER DOSE FOR 30 WK (STUDY, Route [Inhibitor]: DERMAL, Species: MOUSE, Strain/Sex: ICR/FEMALE, Target Tissue: Type of Lesion: SKIN: TUMOR, Dose [Carcinogen]: 0.2 UMOL ONCE (STUDY DURATION: 31 WK), Promoter: 12-O-TETRADECANOYLPHORBOL-13-ACETATE [16561-29-8]) | tumour outcome (control, treated, inhibition, significance) (Carcinogen: 7,12-DIMETHYLBENZ[A]ANTHRACENE [57-97-6], Dose [Inhibitor]: 0.5% IN 0.2 ML DMSO/ACETONE (15:85) 10 MIN PRIOR TO EACH PROMOTER DOSE FOR 30 WK (STUDY DURATION: 30 WK), Route [Inhibitor]: DERMAL, Species: MOUSE, Strain/Sex: ICR/FEMALE, Target Tissue: Type of Lesion: SKIN: TUMOR, Dose [Carcinogen]: 0.2 UMOL ONCE (STUDY DURATION: 30 WK), Promoter: 12-O-TETRADECANOYLPHORBOL-13-ACETATE [16561-29-8]) | tumour outcome (control, treated, inhibition, significance) (Carcinogen: BENZO[A]PYRENE-7,8-DIHYDRODIOL-9,10-EPOXIDE, 58917-67-2, Dose [Inhibitor]: 0, 15 MG/KG BW ONCE 30 MIN PRIOR TO CARCINOGEN DOSE (STUDY DURATION: 24 WK), Route [Inhibitor]: GAVAGE, Species: MOUSE, Strain/Sex: ICR/FEMALE, Target Tissue: Type of Lesion: SKIN: PAPILLOMA, Dose [Carcinogen]: 0.1 UMOL ONCE, Promoter: 12-O-TETRADECANOYLPHORBOL-13-ACETATE, 16561-29-8) | tumour outcome (control, treated, inhibition, significance) (Carcinogen: BENZO[A]PYRENE, 50-32-8, Dose [Inhibitor]: 0, 15 MG/KG BW ONCE 30 MIN PRIOR TO CARCINOGEN DOSE (STUDY DURATION: 40 WK), Route [Inhibitor]: GAVAGE, Species: MOUSE, Strain/Sex: ICR/FEMALE, Target Tissue: Type of Lesion: SKIN: PAPILLOMA, Dose [Carcinogen]: 0.3 UMOL ONCE, Promoter: 12-O-TETRADECANOYLPHORBOL-13-ACETATE, 16561-29-8) | tumour outcome (control, treated, inhibition, significance) (Carcinogen: DIETHYLNITROSAMINE, 55-18-5, Dose [Inhibitor]: 0, 2000 PPM IN DIET FOR 4 WK DURING INITIATION (STUDY DURATION: 24 WK), Route [Inhibitor]: ORAL, Species: RAT, Strain/Sex: F344/MALE, Target Tissue: Type of Lesion: LIVER: ADENOMA, Dose [Carcinogen]: 100 MG/KG BW 1/WK FOR 3 WK, Promoter: PHENOBARBITAL, 50-06-6) | tumour outcome (control, treated, inhibition, significance) (Carcinogen: DIETHYLNITROSAMINE, 55-18-5, Dose [Inhibitor]: 0, 2000 PPM IN DIET FOR 4 WK DURING INITIATION (STUDY DURATION: 24 WK), Route [Inhibitor]: ORAL, Species: RAT, Strain/Sex: F344/MALE, Target Tissue: Type of Lesion: LIVER: CARCINOMA, Dose [Carcinogen]: 100 MG/KG BW 1/WK FOR 3 WK, Promoter: PHENOBARBITAL, 50-06-6) | tumour outcome (control, treated, inhibition, significance) (Carcinogen: DIETHYLNITROSAMINE, 55-18-5, Dose [Inhibitor]: 0, 2000 PPM IN DIET FOR 20 WK BEGINNING 1 WK POST CARCINOGEN TREATMENT (STUDY DURATION: 24 WK), Route [Inhibitor]: ORAL, Species: RAT, Strain/Sex: F344/MALE, Target Tissue: Type of Lesion: LIVER: ADENOMA, Dose [Carcinogen]: 100 MG/KG BW 1/WK FOR 3 WK, Promoter: NONE USED) | tumour outcome (control, treated, inhibition, significance) (Carcinogen: DIETHYLNITROSAMINE, 55-18-5, Dose [Inhibitor]: 0, 2000 PPM IN DIET FOR 20 WK BEGINNING 1 WK POST CARCINOGEN TREATMENT (STUDY DURATION: 24 WK), Route [Inhibitor]: ORAL, Species: RAT, Strain/Sex: F344/MALE, Target Tissue: Type of Lesion: LIVER: ADENOMA, Dose [Carcinogen]: 100 MG/KG BW 1/WK FOR 3 WK, Promoter: PHENOBARBITAL, 50-06-6) | tumour outcome (control, treated, inhibition, significance) (Carcinogen: DIETHYLNITROSAMINE, 55-18-5, Dose [Inhibitor]: 0, 2000 PPM IN DIET FOR 20 WK BEGINNING 1 WK POST CARCINOGEN TREATMENT (STUDY DURATION: 24 WK), Route [Inhibitor]: ORAL, Species: RAT, Strain/Sex: F344/MALE, Target Tissue: Type of Lesion: LIVER: CARCINOMA, Dose [Carcinogen]: 100 MG/KG BW 1/WK FOR 3 WK, Promoter: NONE USED) | tumour outcome (control, treated, inhibition, significance) (Carcinogen: DIETHYLNITROSAMINE, 55-18-5, Dose [Inhibitor]: 0, 2000 PPM IN DIET FOR 20 WK BEGINNING 1 WK POST CARCINOGEN TREATMENT (STUDY DURATION: 24 WK), Route [Inhibitor]: ORAL, Species: RAT, Strain/Sex: F344/MALE, Target Tissue: Type of Lesion: LIVER: CARCINOMA, Dose [Carcinogen]: 100 MG/KG BW 1/WK FOR 3 WK, Promoter: PHENOBARBITAL, 50-06-6) | tumour outcome (control, treated, inhibition, significance) (Dose [Inhibitor]: 0, 500 PPM IN DIET FOR 2 WK ADMINISTERED WITH CARCINOGEN (STUDY DURATION: 9 MO), Route [Inhibitor]: ORAL, Species: FISH, Strain/Sex: RAINBOW TROUT/MALE, FEMALE, Target Tissue: Type of Lesion: LIVER: TUMOR, Promoter: NONE USED) | tumour outcome (control, treated, inhibition, significance) (Dose [Inhibitor]: 0, 500 PPM IN DIET FOR 2 WK ADMINISTERED WITH CARCINOGEN (STUDY DURATION: 9 Mo), Route [Inhibitor]: ORAL, Species: FISH, Strain/Sex: RAINBOW TROUT/MALE, FEMALE, Target Tissue: Type of Lesion: LIVER: TUMOR, Promoter: NONE USED) | tumour outcome (control, treated, inhibition, significance) (Carcinogen: BETA-PROPIOLACTONE, 57-57-8, Dose [Inhibitor]: 40 UMOL IN 0.2 ML WATER 5 MIN PRIOR TO EACH CARCINOGEN DOSE (STUDY DURATION: 26 WK), Route [Inhibitor]: GAVAGE, Species: MOUSE, Strain/Sex: STRAIN-A/FEMALE, Target Tissue: Type of Lesion: FORESTOMACH: PAPILLOMA, Dose [Carcinogen]: 28 UMOL IN 0.1 ML WATER 2/WK FOR 10 WK, Promoter: NONE USED) |
| --- | --- | --- | --- | --- | --- | --- | --- | --- | --- | --- | --- | --- | --- | --- | --- | --- | --- | --- | --- |
| C=Cc1c(C)c2[n-]c1=CC1=NC(=CC3=C(C)C(=C([O-])[O-])C(=N3)C(CC(=O)[O-])=C3N=C(C=2)C(C)C3CCC(=O)[O-])C(CC)=C1C.[Cu+2].[Na+].[Na+].[Na+] (centres undefined) | 6/10 (60%), 6/13 (46%), 23%, not significant | 5/10 (50%), 8/13 (62%), -24%, not significant | 2/20 (10%), 4/20 (20%), -100%, not significant | 8/20 (40%), 3/20 (15%), 63%, not significant | 2/20 (10%), 0/20 (0%), 100%, not significant | 100%, 87%, 13%, not significant | 100%, 27%, 73%, p<0.005 | 100%, 40%, 60%, p<0.005 | 98%, 70%, 29%, not calculated | 97%, 78%, 20%, not calculated | 95%, 70%, 26%, p<0.05 | 70%, 60%, 14%, not significant | 13%, 13%, 0%, not significant | 95%, 63%, 34%, p<0.02 | 29%, 31%, -7%, not significant | 70%, 63%, 10%, not significant | 16%, 12%, 25%, p=0.29 | 7%, 3%, 57%, p=0.04 |  |
| O=S(=O)(O)c1ccccc1 |  |  |  |  |  |  |  |  |  |  |  |  |  |  |  |  |  |  | 100%, 100%, 0%, not significant |
